Earlier results on 1 molecule are cited in patent US20150017242A1 (Lupin Limited, priority 2012, published 2015).

Like-named read-outs stand apart in the source and are kept apart here.

Test in data set [1]: not given
The source holds these as a separate data set.

Regarding `CCCCc1oc2ccc(NS(C)(=O)=O)cc2c1C(=O)c1ccc(OCCCN(CCCC)CCCC)cc1.Cl` [Dronedarone, N-{2-butyl-3-[4-(3-dibutylaminopropoxy)benzoyl]benzofuran-5-yl}methane sulfonamide, hydrochloride], the absolute oral bioavailability result runs as follows: (administered with a high fat meal) “approx. 15%”; (fasting) 4%. Moreover, the “behaviour at higher pH condition” value in data set [1] is “precipitates out”.
